In one data set the test system is ABHD16A−/− macrophages. Description: Lyso-PS and cytokines of ABHD16A−/− macrophages. It counts as cell-based, mouse. To be noted: basal or LPS stimulation; 1 μM, 4 h. The method, then:
Concentration of secreted lyso-PS (a) and cytokines IL-6 (b) and TNF-α (c) from thioglycollate-elicited peritoneal mouse macrophages from ABHD16A^−/− mice treated with inhibitor (KC01 or KC02, 1 μM, 4 h) followed by vehicle (PBS) or LPS (5 μg/mL) for 7 h is shown. Data represent mean±s.e.m. for four biological replicates. KC01 and KC02 have no effect on lyso-PS or cytokine secretion. Other secreted and cellular lipids in ABHD16A^−/− macrophages were also unchanged by KC01 or KC02 treatment (data not shown).
Peritoneal macrophages were elicited and harvested from mice according to the standard protocols available from LIPID MAPS (See http://www.lipidmaps.org/protocols/PP0000001400.pdf and http://www.lipidmaps.org/protocols/PP0000001500.pdf). After removal of the RBC lysis buffer, the macrophages were re-suspended in RPMI 1640 with 10% FCS and IX penicillin-streptomycin. Cell counts measured using a Bio-Rad TC10 automated cell counter, and equal numbers of cells (2×10^6) were plated in 10 cm tissue culture dishes. Macrophages were allowed to adhere to the plates for 2 h at 37° C. and 5% CO2. […] Macrophages were then stimulated with lipopolysaccharide (5 μg/mL) for 7 hours. Sterile PBS was the vehicle in these studies. Four milliliters of the media was used for measuring secreted metabolites, and 0.5 mL was used for cytokine measurements.

Data set [1] concerns the target T1, ABHD16A (Homo sapiens, UniProt O95870).
T1 sequence (O95870 1-558): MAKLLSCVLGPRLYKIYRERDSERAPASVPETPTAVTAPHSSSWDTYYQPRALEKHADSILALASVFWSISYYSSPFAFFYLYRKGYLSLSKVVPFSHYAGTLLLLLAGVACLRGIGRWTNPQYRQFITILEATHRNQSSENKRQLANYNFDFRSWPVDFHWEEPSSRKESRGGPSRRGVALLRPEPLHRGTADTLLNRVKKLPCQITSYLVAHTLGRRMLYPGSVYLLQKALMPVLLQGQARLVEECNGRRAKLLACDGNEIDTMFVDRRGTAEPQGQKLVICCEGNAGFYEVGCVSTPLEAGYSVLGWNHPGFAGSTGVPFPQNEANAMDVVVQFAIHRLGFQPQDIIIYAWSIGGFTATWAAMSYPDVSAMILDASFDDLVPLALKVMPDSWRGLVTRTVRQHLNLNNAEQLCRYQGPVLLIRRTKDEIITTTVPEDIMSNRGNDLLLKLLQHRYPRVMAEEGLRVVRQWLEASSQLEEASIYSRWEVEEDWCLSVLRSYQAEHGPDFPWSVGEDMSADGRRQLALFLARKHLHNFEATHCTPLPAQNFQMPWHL
As to the kind of experiment: ABPP-SILAC, COLO205 cells treated in situ. It counts as cell-based. Also noted: All ABPP-SILAC experiments were performed using the human COLO205 colon cancer cell line; endogenous in cells; host or cells: COLO205. Conditions: COLO 205, 4 h.

Data set [2] deals with serine hydrolase targets from mouse brain and COLO205 membrane proteomes. As to the kind of experiment: Competitive gel-based ABPP of β-lactone probe set. Conditions: 25 μM, 30 min, 37° C., then FP-rhodamine. The class given is biochemical. The method, then:
Competitive gel-based ABPP were performed as described previously with slight modifications. See Adibekian et al. Nat. Chem. Biol. (2011) 7, 469. […] The reactions were quenched by adding 40 μL of 4×SDS-PAGE loading buffer for reducing gels, followed by boiling for 2 minutes. All samples were visualized in-gel using an FMBio II Multiview flatbed fluorescence scanner (Hitachi). The fluorescence from rhodamine is presented in gray scale.

In a further data set the target is T2, PNPLA4 (Homo sapiens, UniProt P41247).
T2 construct: All ABPP-SILAC experiments were performed using the human COLO205 colon cancer cell line; endogenous in cells; host or cells: COLO205
T2 sequence (P41247 whole entry): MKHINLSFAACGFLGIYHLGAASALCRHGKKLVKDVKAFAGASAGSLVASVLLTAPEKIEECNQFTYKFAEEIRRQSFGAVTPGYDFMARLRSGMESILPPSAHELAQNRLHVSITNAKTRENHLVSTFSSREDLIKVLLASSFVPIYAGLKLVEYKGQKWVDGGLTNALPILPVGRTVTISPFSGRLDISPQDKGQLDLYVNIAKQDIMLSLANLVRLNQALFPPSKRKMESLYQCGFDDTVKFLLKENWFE
Description: ABPP-SILAC of COLO205 membrane proteome treated with compound 8b. It counts as biochemical. To be noted: 30 min.

The next data set has as its target T3, FAAH (Homo sapiens, UniProt O00519).
T3 construct: All ABPP-SILAC experiments were performed using the human COLO205 colon cancer cell line; endogenous in cells; host or cells: COLO205
The data set is described as above. The class given is biochemical. To be noted: 30 min.

The next data set concerns the target T4, ABHD2 (Homo sapiens, UniProt P08910).
T4 construct: All ABPP-SILAC experiments were performed using the human COLO205 colon cancer cell line; endogenous in cells; host or cells: COLO205
The description is as above. Conditions: 30 min. It counts as biochemical.

The next data set concerns the target T5, CES2 (Homo sapiens, UniProt O00748).
T5 construct: All ABPP-SILAC experiments were performed using the human COLO205 colon cancer cell line; endogenous in cells; host or cells: COLO205
The data set is described as above. It counts as biochemical. Conditions: 30 min.

A further data set has as its target T6, ABHD12 (Homo sapiens, UniProt Q8N2K0).
T6 construct: All ABPP-SILAC experiments were performed using the human COLO205 colon cancer cell line; endogenous in cells; host or cells: COLO205
Described as above. It counts as biochemical. To be noted: 30 min.

Another data set has as its target T7, FASN (Homo sapiens, UniProt P49327).
T7 construct: All ABPP-SILAC experiments were performed using the human COLO205 colon cancer cell line; endogenous in cells; host or cells: COLO205
Described as above. The class given is biochemical. To be noted: 30 min.

The target of a further data set is T8, ABHD3 (Homo sapiens, UniProt Q8WU67).
T8 construct: All ABPP-SILAC experiments were performed using the human COLO205 colon cancer cell line; endogenous in cells; host or cells: COLO205
T8 sequence (Q8WU67 whole entry): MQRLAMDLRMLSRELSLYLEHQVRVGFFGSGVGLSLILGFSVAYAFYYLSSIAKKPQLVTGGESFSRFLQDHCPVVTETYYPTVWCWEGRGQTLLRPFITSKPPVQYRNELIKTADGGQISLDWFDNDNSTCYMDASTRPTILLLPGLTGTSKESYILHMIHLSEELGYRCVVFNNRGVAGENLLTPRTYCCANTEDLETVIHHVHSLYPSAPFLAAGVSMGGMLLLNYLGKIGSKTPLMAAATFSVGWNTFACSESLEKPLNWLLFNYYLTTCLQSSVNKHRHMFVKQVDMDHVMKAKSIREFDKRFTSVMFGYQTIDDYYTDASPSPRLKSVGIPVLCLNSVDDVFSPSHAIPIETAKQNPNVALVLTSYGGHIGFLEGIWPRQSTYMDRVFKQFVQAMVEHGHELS
The data set is described as above. Conditions: 30 min. The class given is biochemical.

Data set [3] addresses T1, ABHD16A. The description is as above. It counts as biochemical. Also noted: All ABPP-SILAC experiments were performed using the human COLO205 colon cancer cell line; endogenous in cells; host or cells: COLO205. To be noted: 30 min.
The target in another data set is T9, mouse ABHD16A (Mus musculus, UniProt Q9Z1Q2).
T9 construct: full-length cDNA of human ABHD16A (Open Biosystems Catalog # MHS6278-202758315) or murine ABHD16A (Open Biosystems Catalog # MMM1013-202760516); host or cells: HEK293T, transient, pCMV-SPORT6
T9 sequence (Q9Z1Q2 1-558): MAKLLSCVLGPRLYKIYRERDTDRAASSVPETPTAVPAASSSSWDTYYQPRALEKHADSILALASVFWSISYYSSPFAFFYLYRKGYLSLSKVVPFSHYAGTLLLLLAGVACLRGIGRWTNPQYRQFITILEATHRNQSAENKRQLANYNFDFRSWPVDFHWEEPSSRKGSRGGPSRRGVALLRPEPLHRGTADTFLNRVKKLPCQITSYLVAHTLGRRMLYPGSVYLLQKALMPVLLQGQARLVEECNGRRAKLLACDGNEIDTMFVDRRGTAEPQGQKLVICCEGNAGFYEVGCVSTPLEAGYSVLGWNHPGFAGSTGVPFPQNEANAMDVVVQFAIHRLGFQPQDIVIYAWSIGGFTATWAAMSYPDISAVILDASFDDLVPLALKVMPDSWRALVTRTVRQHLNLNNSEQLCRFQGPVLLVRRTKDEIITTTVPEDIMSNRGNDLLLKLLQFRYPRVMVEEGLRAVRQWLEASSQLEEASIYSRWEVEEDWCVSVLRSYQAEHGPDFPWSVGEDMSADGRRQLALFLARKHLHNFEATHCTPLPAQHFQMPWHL
As to the kind of experiment: PS substrate assay, mouse ABHD16A-transfected HEK293T proteome. Conditions: 20 μM, 30 min, 37° C. The class given is biochemical.

Data set [4] concerns the target T1, ABHD16A. Description: PS substrate assay, human ABHD16A-transfected HEK293T membrane proteome. The class given is biochemical. Also noted: transiently transfected with 12 μg of the full-length cDNA of human ABHD16A (Open Biosystems Catalog # MHS6278-202758315); host or cells: HEK293T, transient, pCMV-SPORT6. To be noted: 20 μM, 30 min. The method, then:
HEK293T cells were grown to 40% confluence in a 15 cm dish in 25 mL of Dulbecco's modified Eagle medium (DMEM) supplemented with L-glutamine and 10% (vol/vol) FCS at 37° C. and 5% CO2 (vol/vol). The cells were transiently transfected with 12 μg of the full-length cDNA of human ABHD16A (Open Biosystems Catalog # MHS6278-202758315) or murine ABHD16A (Open Biosystems Catalog # MMM1013-202760516) in pCMV-SPORT6 vector using 40 μg polyethyleneimine “MAX” (MW 40,000) (PEI) (Polysciences Inc. Catalog #24765) as the transfection reagent as per manufacturer's instructions. As a “mock” control, an empty vector was transiently transfected. […] Protein concentration was measured using the Bio-Rad DC Protein Assay Kit as per manufacturer's protocol, and ABHD16A expression was confirmed using gel-based ABPP.
All the lipid species used in the lipid substrate hydrolysis assays were purchased from Avanti Polar Lipids Inc unless mentioned otherwise. […] All the data was collected and analyzed using the Agilent MassHunter Workstation software version B.04 using the Data Acquisition and Quantitative Analysis programs respectively. Measuring the area under the peak, and normalizing it to the internal standard quantified the product release for the lipid substrate hydrolysis assays. […] Some products from the substrate hydrolysis assays were detected in positive ion mode for qualitative identification. […]

T4 sequence (P08910 whole entry): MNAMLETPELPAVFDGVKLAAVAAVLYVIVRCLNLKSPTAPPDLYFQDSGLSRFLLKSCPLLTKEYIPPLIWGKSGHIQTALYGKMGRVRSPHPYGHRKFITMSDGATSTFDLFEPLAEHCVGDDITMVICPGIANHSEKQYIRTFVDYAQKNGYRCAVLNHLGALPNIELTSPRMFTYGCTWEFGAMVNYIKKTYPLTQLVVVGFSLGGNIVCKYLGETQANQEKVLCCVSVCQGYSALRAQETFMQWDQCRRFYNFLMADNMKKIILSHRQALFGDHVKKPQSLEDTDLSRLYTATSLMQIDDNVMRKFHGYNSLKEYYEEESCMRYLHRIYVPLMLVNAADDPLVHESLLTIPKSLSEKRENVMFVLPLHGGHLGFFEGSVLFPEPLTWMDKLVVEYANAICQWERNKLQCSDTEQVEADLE
T5 sequence (O00748 27-559): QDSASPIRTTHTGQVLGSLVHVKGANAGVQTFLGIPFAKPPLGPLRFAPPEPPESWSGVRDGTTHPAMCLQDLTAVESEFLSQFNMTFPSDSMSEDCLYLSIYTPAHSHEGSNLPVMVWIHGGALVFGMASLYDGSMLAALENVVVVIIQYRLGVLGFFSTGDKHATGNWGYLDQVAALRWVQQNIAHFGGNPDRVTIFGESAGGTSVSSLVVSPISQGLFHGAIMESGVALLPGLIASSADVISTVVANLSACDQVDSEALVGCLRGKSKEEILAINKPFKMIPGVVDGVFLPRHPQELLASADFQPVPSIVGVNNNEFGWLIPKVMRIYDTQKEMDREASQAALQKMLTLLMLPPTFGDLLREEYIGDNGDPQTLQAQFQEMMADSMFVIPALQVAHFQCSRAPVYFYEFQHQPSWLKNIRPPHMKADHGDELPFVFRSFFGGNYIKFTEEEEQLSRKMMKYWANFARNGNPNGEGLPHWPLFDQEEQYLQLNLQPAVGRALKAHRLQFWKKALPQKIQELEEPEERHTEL
T3 sequence (O00519 whole entry): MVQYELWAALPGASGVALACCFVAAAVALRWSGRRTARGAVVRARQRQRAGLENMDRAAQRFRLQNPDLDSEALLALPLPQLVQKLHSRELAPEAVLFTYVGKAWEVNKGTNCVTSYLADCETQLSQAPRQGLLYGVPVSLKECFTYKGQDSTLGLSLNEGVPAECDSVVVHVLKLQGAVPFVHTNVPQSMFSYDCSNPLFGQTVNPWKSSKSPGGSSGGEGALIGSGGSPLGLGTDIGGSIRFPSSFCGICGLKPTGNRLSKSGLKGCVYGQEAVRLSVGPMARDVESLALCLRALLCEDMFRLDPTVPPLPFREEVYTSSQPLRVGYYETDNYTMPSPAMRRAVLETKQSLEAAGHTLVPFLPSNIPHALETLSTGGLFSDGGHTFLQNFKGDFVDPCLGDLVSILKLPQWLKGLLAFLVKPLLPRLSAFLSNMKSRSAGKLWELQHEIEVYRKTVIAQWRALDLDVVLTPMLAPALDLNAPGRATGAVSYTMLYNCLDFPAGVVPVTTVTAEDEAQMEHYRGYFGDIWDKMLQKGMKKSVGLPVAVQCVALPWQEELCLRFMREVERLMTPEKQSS
T7 sequence (P49327 whole entry): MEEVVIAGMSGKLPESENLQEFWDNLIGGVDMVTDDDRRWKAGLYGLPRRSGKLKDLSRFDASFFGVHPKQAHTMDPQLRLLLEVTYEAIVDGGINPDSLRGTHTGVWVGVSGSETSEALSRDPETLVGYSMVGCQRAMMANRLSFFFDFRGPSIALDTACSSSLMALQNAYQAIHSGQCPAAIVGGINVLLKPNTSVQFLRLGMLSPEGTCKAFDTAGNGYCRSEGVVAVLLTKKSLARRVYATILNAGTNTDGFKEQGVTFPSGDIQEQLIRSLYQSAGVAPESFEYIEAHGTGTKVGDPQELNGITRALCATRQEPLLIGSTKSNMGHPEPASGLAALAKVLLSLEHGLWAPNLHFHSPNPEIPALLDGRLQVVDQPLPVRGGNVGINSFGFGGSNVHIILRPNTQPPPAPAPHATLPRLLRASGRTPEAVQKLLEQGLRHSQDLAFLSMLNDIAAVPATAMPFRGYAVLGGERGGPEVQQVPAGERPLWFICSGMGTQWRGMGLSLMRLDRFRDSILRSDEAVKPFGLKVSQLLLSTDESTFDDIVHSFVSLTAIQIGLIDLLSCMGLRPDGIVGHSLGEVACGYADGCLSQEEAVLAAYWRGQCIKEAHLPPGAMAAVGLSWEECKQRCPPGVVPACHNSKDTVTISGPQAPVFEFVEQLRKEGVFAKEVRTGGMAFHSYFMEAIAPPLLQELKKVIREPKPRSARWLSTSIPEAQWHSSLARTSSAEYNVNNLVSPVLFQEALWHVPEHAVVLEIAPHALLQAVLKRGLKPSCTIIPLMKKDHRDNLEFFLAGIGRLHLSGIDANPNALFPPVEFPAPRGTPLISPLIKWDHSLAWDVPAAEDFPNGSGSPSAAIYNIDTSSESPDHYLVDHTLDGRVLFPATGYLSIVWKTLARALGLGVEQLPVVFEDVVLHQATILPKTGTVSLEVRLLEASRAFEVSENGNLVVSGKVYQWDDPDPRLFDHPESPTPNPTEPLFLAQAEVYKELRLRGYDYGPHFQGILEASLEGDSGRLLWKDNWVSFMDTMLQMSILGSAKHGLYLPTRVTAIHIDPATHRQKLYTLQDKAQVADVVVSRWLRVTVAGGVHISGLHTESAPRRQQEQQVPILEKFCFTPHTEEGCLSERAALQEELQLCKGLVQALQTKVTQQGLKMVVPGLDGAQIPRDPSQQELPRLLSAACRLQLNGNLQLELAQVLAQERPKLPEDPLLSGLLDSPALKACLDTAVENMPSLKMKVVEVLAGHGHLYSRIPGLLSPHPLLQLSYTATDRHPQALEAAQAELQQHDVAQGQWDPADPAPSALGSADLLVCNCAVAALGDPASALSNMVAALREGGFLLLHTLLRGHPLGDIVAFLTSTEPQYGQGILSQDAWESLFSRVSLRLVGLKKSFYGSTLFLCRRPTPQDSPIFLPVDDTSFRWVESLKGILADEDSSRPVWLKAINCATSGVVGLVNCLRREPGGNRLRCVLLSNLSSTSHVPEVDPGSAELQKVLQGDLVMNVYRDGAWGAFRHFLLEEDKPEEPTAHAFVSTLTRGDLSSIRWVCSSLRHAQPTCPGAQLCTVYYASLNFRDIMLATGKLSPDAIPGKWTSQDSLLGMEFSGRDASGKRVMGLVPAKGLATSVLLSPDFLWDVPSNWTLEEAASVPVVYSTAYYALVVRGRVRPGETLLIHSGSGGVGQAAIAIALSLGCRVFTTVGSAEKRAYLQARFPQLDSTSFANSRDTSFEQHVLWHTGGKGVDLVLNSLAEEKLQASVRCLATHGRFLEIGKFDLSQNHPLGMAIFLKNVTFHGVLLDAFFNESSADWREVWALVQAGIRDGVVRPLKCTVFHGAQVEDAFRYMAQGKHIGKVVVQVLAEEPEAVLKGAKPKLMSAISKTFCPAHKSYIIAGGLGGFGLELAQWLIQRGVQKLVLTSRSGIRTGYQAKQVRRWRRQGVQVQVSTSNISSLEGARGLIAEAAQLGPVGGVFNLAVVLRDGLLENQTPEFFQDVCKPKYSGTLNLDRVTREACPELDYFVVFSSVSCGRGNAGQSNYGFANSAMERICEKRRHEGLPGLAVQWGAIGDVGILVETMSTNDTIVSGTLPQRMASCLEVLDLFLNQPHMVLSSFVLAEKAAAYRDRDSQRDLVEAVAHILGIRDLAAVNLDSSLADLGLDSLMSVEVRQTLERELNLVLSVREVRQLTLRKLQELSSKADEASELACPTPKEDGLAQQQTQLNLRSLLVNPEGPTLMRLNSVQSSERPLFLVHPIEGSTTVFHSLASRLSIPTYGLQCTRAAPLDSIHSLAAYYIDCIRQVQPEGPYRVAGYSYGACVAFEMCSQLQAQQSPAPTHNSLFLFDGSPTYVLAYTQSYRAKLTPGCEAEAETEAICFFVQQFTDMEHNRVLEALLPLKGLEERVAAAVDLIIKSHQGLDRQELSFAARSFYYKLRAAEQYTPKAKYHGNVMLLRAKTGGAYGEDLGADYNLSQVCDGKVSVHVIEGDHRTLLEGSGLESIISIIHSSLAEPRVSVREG

Usually melting point stands for the temperature of the solid-liquid transition. The compound `NC(=O)CCCC/C=C1\C(=O)OC1CCCCCCCCCc1ccccc1` (stereo not drawn) [Compound 15, (Z)-6-(2-Oxo-4-(9-phenylnonyl)oxetan-3-ylidene)hexanamide] had a melting point of 93 to 94 °C.

On to `CCCCCCCCCCCCCC1OC(=O)/C1=C\CCCCc1ccccc1` (stereo not drawn) [Compound 4, (Z)-3-(5-phenylpentylidene)-4-tridecyloxetan-2-one], for which the melting point lay within 34 to 35 °C.

For orientation: inhibition means the share of the control response that was lost under treatment. For the compound `NC(=O)CCCCC=C1C(=O)OC1CCc1ccccc1` (mixture of isomers) [KC02, (E/Z)-6-(2-Oxo-4-(2-phenethyl)oxetan-3-ylidene)hexanamide], the “cellular or secreted lyso-PS, other lipids, secreted IL-6 and TNF-α” value with ABHD16A−/− macrophages is on record as “No changes”. In addition, the inhibition at 1 µM against ABHD16A [1] is under 30%.

Regarding `CCCCCCCCCCCCCC1OC(=O)C1CCCCCC(N)=O` (mixture of isomers) [Compound 17, (cis/trans)-6-(2-Oxo-4-tridecyloxetan-3-yl)hexanamide], the melting point lay in the range of 98 to 101 °C.

For the compound `CCCCCCCCCCCCC[C@@H]1OC(=O)[C@H]1Cc1ccccc1` (relative stereo) [Compound 8b, (trans)-3-benzyl-4-tridecyloxetan-2-one], the “reactivity / inhibition of serine hydrolase activities” value in [2] is listed as “broadest reactivity”. Further, the inhibition at 25 µM was over 90% on PNPLA4; over 90% on FAAH; over 90% at ABHD2; over 90% on CES2; over 90% on ABHD12; 70 to 90% on FASN. Besides, the inhibition at 25 µM was 70 to 90% at ABHD3 and over 90% on ABHD16A [3].

Consider `CCCCCCCCCCC[C@@H](C[C@@H]1OC(=O)[C@H]1CCCCCC)OC(=O)[C@H](CC(C)C)NC=O` [THL, tetrahydrolipstatin, reference compound], for which the “heightened PS lipase activity of ABHD16A-transfected proteome” value at mouse ABHD16A and on ABHD16A [4] was “blocked” throughout.

Turning to `CCCCCCCCCCCCCC1OC(=O)/C1=C\CCCCCS(N)(=O)=O` (stereo not drawn) [Compound 16, (Z)-6-(2-Oxo-4-tridecyloxetan-3-ylidene)hexane-1-sulfonamide], the melting point lay in the range of 79 to 80 °C.

Turning to `CCCCCCCCCCCCCC1OC(=O)/C1=C\c1ccccc1` (stereo not drawn) [Compound 3, (Z)-3-benzylidene-4-tridecyloxetan-2-one], the melting point fell in the range of 61 to 62 °C.

Source of the values: patent publication US20170313669A1, “LACTONE COMPOUNDS AND METHODS OF MAKING AND USING SAME” (THE SCRIPPS RESEARCH INSTITUTE, priority 2015, published 2017).
